Test results from the NIST ThermoML archive (doi:10.1021/acs.jced.6b00916).
Values joined by “and” are separate entries in the source; they are usually repeats but may differ in a detail not shown here. Equal values may be shown once. Numbers after ± are expanded uncertainties.

Settings: Liquid, Closed cell (Static) method

FC(F)(F)/C=C/Cl [(E)-1-chloro-3,3,3-trifluoroprop-1-ene]
vapor or sublimation pressure (234.15 K): 7.2 ± 1 kPa | vapor or sublimation pressure (237.15 K): 8.5 ± 1 kPa | vapor or sublimation pressure (240.15 K): 10 ± 1 kPa | vapor or sublimation pressure (243.15 K): 11.7 ± 1 kPa | vapor or sublimation pressure (246.15 K): 13.7 ± 1 kPa | vapor or sublimation pressure (249.15 K): 16 ± 1 kPa | vapor or sublimation pressure (252.15 K): 18.6 ± 1 kPa | vapor or sublimation pressure (255.15 K): 21.6 ± 1 kPa | vapor or sublimation pressure (258.15 K): 25 ± 1 kPa | vapor or sublimation pressure (261.15 K): 28.8 ± 1 kPa | vapor or sublimation pressure (264.15 K): 33.1 ± 1 kPa | vapor or sublimation pressure (267.15 K): 38 ± 1 kPa | vapor or sublimation pressure (270.15 K): 43.4 ± 1 kPa | vapor or sublimation pressure (273.15 K): 49.4 ± 1 kPa | vapor or sublimation pressure (276.15 K): 56.1 ± 1 kPa | vapor or sublimation pressure (279.15 K): 63.6 ± 1 kPa | vapor or sublimation pressure (282.15 K): 71.7 ± 1 kPa | vapor or sublimation pressure (285.15 K): 80.7 ± 1 kPa | vapor or sublimation pressure (288.15 K): 90.6 ± 1 kPa | vapor or sublimation pressure (291.15 K): 101.7 ± 1 kPa | vapor or sublimation pressure (293.15 K): 108.8 ± 1 kPa | vapor or sublimation pressure (294.15 K): 113.6 ± 1 kPa | vapor or sublimation pressure (295.15 K): 117.2 ± 1 kPa | vapor or sublimation pressure (297.15 K): 126 ± 1 kPa and 126.6 ± 1 kPa and 126.4 ± 1 kPa | vapor or sublimation pressure (299.15 K): 135.1 ± 1 kPa | vapor or sublimation pressure (300.15 K): 140.5 ± 1 kPa | vapor or sublimation pressure (301.15 K): 144.9 ± 1 kPa | vapor or sublimation pressure (303.15 K): 155.3 ± 1 kPa and 155.9 ± 1 kPa | vapor or sublimation pressure (305.15 K): 166.3 ± 1 kPa | vapor or sublimation pressure (306.15 K): 172.6 ± 1.1 kPa | vapor or sublimation pressure (307.15 K): 177.8 ± 1.1 kPa | vapor or sublimation pressure (309.15 K): 190.1 ± 1.1 kPa and 190.6 ± 1.1 kPa | vapor or sublimation pressure (311.15 K): 202.9 ± 1.1 kPa | vapor or sublimation pressure (312.15 K): 210 ± 1.1 kPa | vapor or sublimation pressure (313.15 K): 216.1 ± 1.1 kPa | vapor or sublimation pressure (315.15 K): 230.1 ± 1.1 kPa and 230.9 ± 1.1 kPa | vapor or sublimation pressure (317.15 K): 245 ± 1.1 kPa | vapor or sublimation pressure (318.15 K): 253.5 ± 1.1 kPa | vapor or sublimation pressure (319.15 K): 260.7 ± 1.1 kPa | vapor or sublimation pressure (321.15 K): 277.1 ± 1.1 kPa and 277.7 ± 1.1 kPa | vapor or sublimation pressure (323.15 K): 296.3 ± 1.1 kPa and 294.3 ± 1.1 kPa | vapor or sublimation pressure (324.15 K): 303.6 ± 1.1 kPa | vapor or sublimation pressure (325.15 K): 312.2 ± 1.1 kPa | vapor or sublimation pressure (327.15 K): 331 ± 1.2 kPa and 331.3 ± 1.2 kPa | vapor or sublimation pressure (329.15 K): 350.5 ± 1.2 kPa | vapor or sublimation pressure (330.15 K): 361 ± 1.2 kPa | vapor or sublimation pressure (331.15 K): 371 ± 1.2 kPa | vapor or sublimation pressure (333.15 K): 392.5 ± 1.2 kPa and 392.6 ± 1.2 kPa | vapor or sublimation pressure (335.15 K): 413.9 ± 1.2 kPa | vapor or sublimation pressure (336.15 K): 426.2 ± 1.2 kPa | vapor or sublimation pressure (337.15 K): 437.2 ± 1.3 kPa | vapor or sublimation pressure (339.15 K): 461.2 ± 1.3 kPa and 461.9 ± 1.3 kPa | vapor or sublimation pressure (341.15 K): 486.3 ± 1.3 kPa | vapor or sublimation pressure (342.15 K): 499.8 ± 1.3 kPa | vapor or sublimation pressure (343.15 K): 513.2 ± 1.3 kPa | vapor or sublimation pressure (345.15 K): 540.4 ± 1.4 kPa and 540 ± 1.4 kPa | vapor or sublimation pressure (347.15 K): 568.5 ± 1.4 kPa | vapor or sublimation pressure (348.15 K): 582.7 ± 1.4 kPa | vapor or sublimation pressure (349.15 K): 597.9 ± 1.4 kPa | vapor or sublimation pressure (351.15 K): 628.7 ± 1.5 kPa and 628.1 ± 1.5 kPa | vapor or sublimation pressure (353.15 K): 660.4 ± 1.5 kPa | vapor or sublimation pressure (354.15 K): 675.8 ± 1.5 kPa | vapor or sublimation pressure (357.15 K): 726.3 ± 1.6 kPa | vapor or sublimation pressure (360.15 K): 779.6 ± 1.6 kPa | vapor or sublimation pressure (363.15 K): 835.8 ± 1.7 kPa | vapor or sublimation pressure (366.15 K): 894.8 ± 1.8 kPa | vapor or sublimation pressure (369.15 K): 957.1 ± 1.9 kPa | vapor or sublimation pressure (372.15 K): 1022.5 ± 2 kPa | vapor or sublimation pressure (375.15 K): 1091.3 ± 2 kPa
